{"source": "patent EP1202724B1", "about": "“METHOD FOR TREATING CHRONIC PAIN USING MEK INHIBITORS” (WARNER-LAMBERT COMPANY, priority 1999, dated 2001)", "key": {"[1]": {"system": "CCI-induced static allodynia", "assay": "CCI-induced static allodynia (chronic constriction injury of the sciatic nerve), von Frey hairs (Biological Example 2)", "assay_type": "in vivo, rat", "protocol": "(§1) Male Sprague Dawley rats (250-300g), obtained from Charles River, Margate, U.K.) were housed in groups of 3-6. All animals were kept under a 12h light/dark cycle (lights on at 07h 00min) with food and water ad libitum. All experiments were carried out by an observer blind to drug treatments.\n(§2) Animals were anaesthetised with 2% isoflurane 1:4 O2/N2O mixture maintained during surgery via a nose cone. The sciatic nerve was ligated as previously described by Bennett and Xie, 1988. Animals were placed on a homeothermic blanket for the duration of the procedure. After surgical preparation the common sciatic nerve was exposed at the middle of the thigh by blunt dissection through biceps femoris. Proximal to the sciatic trifurcation, about 7mm of nerve was freed of adhering tissue and 4 ligatures (4-0 silk) were tied loosely around it with about 1mm spacing. The incision was closed in layers and the wound treated with topical antibiotics.\n(§3) PD 198306 and pregabalin were administered intrathecally in a volume of 10 µl using a 100 µl Hamilton syringe by exposing the spine of the rats under brief isoflurane anaesthesia. Injections were made into the intrathecal space between lumbar region 5-6 with a 10 mm long 27 gauge needle. Penetrations were judged successful if there was a tail flick response. The wound was sealed with an autoclip and rats appeared fully awake within 2-3 min following injection.\n(§4) Mechanical hypersensitivity was measured using Semmes-Weinstein von Frey hairs (Stoelting, Illinois, U.S.A.). Animals were placed into wire mesh bottom cages allowing access to the underside of their paws. Animals were habituated to this environment prior to the start of the experiment. Mechanical hypersensitivity was tested by touching the plantar surface of the animals right hind paw with von Frey hairs in ascending order of force ( 0.7, 1.2, 1.5, 2, 3.6, 5.5, 8.5, 11.8, 15.1 and 29g) for up to 6sec. Once a withdrawal response was established, the paw was re-tested, starting with the next descending von Frey hair until no response occurred. The highest force of 29g lifted the paw as well as eliciting a response, thus represented the cut off point. The lowest amount of force required to elicit a response was recorded as the paw withdrawal threshold (PWT) in grams.\n(§5) Static allodynia was assessed with von Frey hairs, before (baseline, BL) and 0.5h, 1h and 2h after intrathecal or intraplantar administration of PD 198306 (1-30µg, i.t.), vehicle (cremophor:ethanol:water, 1:1:8) or pregabalin (10µg, i.t). For oral administration experiments, static allodynia was assessed with von Frey hairs, before (baseline, BL) and 1h after oral administration of PD 198306 (3-30mg/kg, p.o.), vehicle (cremophor:ethanol:water, 1:1:8) or pregabalin (30mg/kg, p.o.). Animals were administered again the same compounds on the following day, both in the morning and the afternoon. Static allodynia was assessed before and 1h after the morning administration. In the afternoon static allodynia was assessed before, 1h, 2h and 3h after administration for streptozocin treated animals. CCI animals were assessed before, 1h and 2h after administration\n(§6) PD 198306 and pregabalin were synthesised at Parke-Davis (Ann Arbor, Ml, USA). PD 198306 was suspended in cremophor:ethanol:water (1:1:8) vehicle. Pregabalin was dissolved in water. Both compounds were administered orally, intrathecally or intraplantar in volumes of 1ml/kg, 10µl and 100µl respectively. Streptozocin (Aldrich, UK) was dissolved in 0.9% w/v NaCl and administered intraperitoneally in a volume of 1ml/kg.\n(§7) Data were analysed using a Kruskall-Wallis ANOVA for non-parametric results, followed when significant by Mann-Whitney's t test vs vehicle group."}, "[2]": {"system": "streptozocin-induced static allodynia", "assay": "streptozocin-induced static allodynia, von Frey hairs, oral administration (Biological Example 1)", "assay_type": "in vivo, rat", "protocol": "Male Sprague Dawley rats (250-300g), obtained from Bantin and Kingman, (Hull, U.K.) were housed in groups of 3. All animals were kept under a 12h light/dark cycle (lights on at 07h 00min) with food and water ad libitum. All experiments were carried out by an observer blind to drug treatments.\nDiabetes was induced in rats by a single i.p. injection of streptozocin (50 mg/kg) as described previously (Courteix et al., 1993).\nas §4, with “to 6 sec.” for “to 6sec.”, “of 29 g” for “of 29g”\nPD 198306 [N-Cyclopropylmethoxy-3,4,5-trifluoro-2-(4-iodo-2-methylphenylamino)-benzamide] and Cl-1008 (pregabalin) were synthesized at Parke-Davis (Ann Arbor, Ml, USA). PD 198306 was suspended in cremophor:ethanol:water (1:1:8) vehicle. Pregabalin was dissolved in water. Both compounds were administered orally. Streptozocin (Aldrich, UK) was dissolved in 0.9% w/v NaCI and administered intraperitoneally. Drug administrations were made in a volume of 1 ml/kg.\nThe static allodynia data were analysed using a Kruskall-Wallis ANOVA for non-parametric results, followed when significant by Mann-Whitney's t test.\nStatic allodynia was assessed with von Frey hairs, before (baseline, BL) and 1h after oral administration of PD 198306 (30mg/kg, p.o.), vehicle (cremophor:ethanol:water, 1:1:8) or pregabalin (30mg/kg, p.o.) (test). Animals were administered again the same compounds on the following day, both in the morning and the afternoon. Static allodynia was assessed only before and 1h after the afternoon administration, in order to minimise the habituation of the animals to the testing conditions. Animals treated with pregabalin received water in the morning administration, in order to avoid the potential development of tolerance to the compound with repeated administration."}, "[3]": {"system": "streptozocin-induced static allodynia", "assay": "streptozocin-induced static allodynia, von Frey hairs, oral, intrathecal or intraplantar administration (Biological Example 2)", "assay_type": "in vivo, rat", "protocol": "as §1\nDiabetes was induced in rats by a single i.p. injection of streptozocin (50mg/kg) as described previously (Courteix et al., 1993).\nas §3, §4, §5, §6, §7"}, "APK": {"system": "APK", "assay": "APK IC50", "assay_type": "biochemical"}, "[4]": {"system": "CCI-induced static allodynia", "assay": "static allodynia in CCI animals after intrathecal administration of other MEK inhibitors (Biological Example 3)", "assay_type": "in vivo, rat", "conditions": "for magnitude of the antiallodynic effect: intrathecal, 30µg of PD 184352 compared with 100µg of pregabalin", "text": "as §2, §3, §4\nThe animals and methods for developing chronic constriction injury in the rat, injecting test compounds, and evaluation of static allodynia were according to Example 2 above. […] Static allodynia was assessed with von Frey hairs, before (baseline, BL) and 0.5h, 1h and 2h after intrathecal administration of the compounds\nPregabalin was dissolved in water. All compounds were administered intrathecally in a 10µl volume.\nas §7"}, "MEK": {"molecular_target": "MEK", "assay": "affinity (binding affinities) of the MEK inhibitors", "conditions": "affinity of the MEK inhibitors tested in the CCI model"}, "[5]": {"conditions": "single administration 30mg/kg p.o., 1h after administration"}, "[6]": {"conditions": "intrathecal, streptozocin animals"}}, "note": "pIC50: −log10 of the molar value. Entries after “also recorded” stand apart in the source; their conditions may differ.", "data": [{"smiles": "Cc1cc(I)ccc1Nc1c(C(=O)NOCC2CC2)cc(F)c(F)c1F", "note": "[PD 198306, N-Cyclopropylmethoxy-3,4,5-trifluoro-2-(4-iodo-2-methylphenylamino)-benzamide]", "values": [{"measurement": "CCI-induced static allodynia", "setting": "[1]; 3-30mg/kg p.o., single or multiple administration", "value": "had no effect; also recorded: neither a single or multiple administration of PD 198306 (3-30mg/kg, p.o) had any effect"}, {"measurement": "static allodynia", "setting": "[1]; intraplantar 3mg/100µl, CCI animals", "value": "had no effect"}, {"measurement": "maintenance of static allodynia", "setting": "[1]; intrathecal 30µg (highest dose), CCI animals", "value": "totally blocked; also recorded: significantly blocked"}, {"measurement": "maintenance of static allodynia", "setting": "[1]; intrathecal 1-30µg, CCI animals", "value": "dose-dependently blocked"}, {"measurement": "duration of antiallodynic effect", "setting": "[1]; intrathecal, CCI animals", "value": "up to 1 h"}, {"measurement": "minimum effective dose (MED)", "setting": "[1]; intrathecal, CCI animals", "value": 10, "unit": "µg"}, {"measurement": "duration of antiallodynic effect", "setting": "[1]; intrathecal, CCI animals, listed as PD198306", "value": 1, "unit": "h"}, {"measurement": "streptozocin-induced static allodynia", "setting": "[2]; 30mg/kg p.o., 1h after the third administration (administered twice more on the following day)", "value": "significantly blocked"}, {"measurement": "persistence of the effects on streptozocin-induced static allodynia", "setting": "[2]; 30mg/kg p.o., day after the third administration", "value": "had disappeared by the following day"}, {"measurement": "streptozocin-induced static allodynia", "setting": "[2]; [5]", "value": "had no effect"}, {"measurement": "duration of block of streptozocin-induced static allodynia", "setting": "[3]; 30mg/kg p.o., after the third administration", "value": 2, "unit": "h"}, {"measurement": "static allodynia", "setting": "[3]; intraplantar 3mg/100µl, streptozocin animals", "value": "had no effect"}, {"measurement": "maintenance of static allodynia", "setting": "[3]; intrathecal 30µg (highest dose), streptozocin animals", "value": "totally blocked; also recorded: significantly blocked"}, {"measurement": "maintenance of static allodynia", "setting": "[3]; intrathecal 1-30µg, streptozocin animals", "value": "dose-dependently blocked"}, {"measurement": "duration of antiallodynic effect", "setting": "[3]; [6]", "value": "up to 1 h"}, {"measurement": "minimum effective dose (MED)", "setting": "[3]; [6]", "value": 3, "unit": "µg"}, {"measurement": "duration of antiallodynic effect", "setting": "[3]; intrathecal, streptozocin animals, listed as PD198306", "value": 1, "unit": "h"}, {"measurement": "streptozocin-induced static allodynia", "setting": "[3]; p.o., 30mg/kg, after the third administration (3 doses over two days), 30 mg/kg", "value": "transient effect; also recorded: significantly blocked"}, {"measurement": "streptozocin-induced static allodynia", "setting": "[3]; single administration 3-30mg/kg p.o., 1h after administration", "value": "had no effect"}]}, {"smiles": "O=S(=O)(NOCC1CC1)c1ccc(F)c(F)c1Nc1ccc(I)cc1Cl", "note": "[PD 0297447, 2-(2-Chloro-4-iodo-phenylamino)-N-cyclopropylmethoxy-3,4-difluoro-benzenesulfonamide]", "values": [{"measurement": "pIC50", "setting": "APK", "value": 6.02}, {"measurement": "effect on static allodynia", "setting": "[4]; intrathecal 30µg", "value": "had no significant effect"}, {"measurement": "pIC50", "setting": "MEK", "value": 6.02}]}, {"smiles": "O=C(NOCC1CC1)c1ccc(F)c(F)c1Nc1ccc(I)cc1Cl", "note": "[PD 184352]", "values": [{"measurement": "duration of antiallodynic effect post-injection", "setting": "[4]; intrathecal 30µg", "value": 30, "unit": "min"}, {"measurement": "effect on static allodynia", "setting": "[4]; intrathecal 30µg", "value": "blocked the maintenance of static allodynia"}, {"measurement": "magnitude of the antiallodynic effect", "setting": "[4]", "value": "similar"}]}, {"smiles": "NS(=O)(=O)c1cc(C(=O)NOCC2CC2)c(Nc2ccc(I)cc2Cl)c(F)c1F", "note": "[PD219622, 2-(2-chloro-4-iodo-phenylamino)-N-cyclopropylmethoxy-3,4-difluoro-5-sulfamoyl-benzamide]", "values": [{"measurement": "effect on static allodynia", "setting": "[4]; intrathecal 30µg", "value": "had no significant effect"}, {"measurement": "pIC50", "setting": "MEK", "value": 7.00}]}, {"smiles": "O=C(O)c1cc([N+](=O)[O-])c(Nc2ccc(I)cc2Cl)c(F)c1Nc1ccc(I)cc1Cl", "note": "[2,4-bis-(2-chloro-4-iodo-phenylamino)-3-fluoro-5-nitrobenzoic acid]", "values": [{"measurement": "pIC50", "setting": "APK", "value": 7.53}]}, {"smiles": "COC(=O)c1cc(S(=O)(=O)N(C)C)c(F)c(F)c1Nc1ccc(I)cc1Cl", "note": "[2-(2-chloro-4-iodo-phenylamino)-5-dimethylsulfamoyl-3,4-difluoro-benzoic acid methyl ester]", "values": [{"measurement": "pIC50", "setting": "APK", "value": 6.65}]}, {"smiles": "CC(C)C[C@H](CN)CC(=O)O", "note": "[pregabalin, reference compound]", "values": [{"measurement": "CCI-induced static allodynia", "setting": "[1]; [5]", "value": "significantly blocked"}, {"measurement": "magnitude of the antiallodynic effect", "setting": "[4]", "value": "similar"}, {"measurement": "streptozocin-induced static allodynia", "setting": "[2]; [5]", "value": "significantly blocked"}, {"measurement": "streptozocin-induced static allodynia", "setting": "[3]; [5]", "value": "significantly blocked"}]}]}
